Test results reported in US20200121695A1, “COMPOSITIONS AND METHODS FOR TREATING ITCH, SKIN INFLAMMATION, AND PRURITUS” (priority 2017, published 2020).

Experiment: Case report: with menstrual-cycle itching, elevated ALP and PBC/AIH overlap syndrome
Assay type: in vivo, human
Conditions: person, Ursodiol 300 mg three times a day plus mycophenolate mofetil 500 mg four times a day for 1 year, together with replacement of Nuva Ring by copper IUD and dietary changes
Description: The itching was predominantly concentrated on hands, feet, back, and stomach area, and the symptoms disappeared as soon as menstruation began. They previously used Nuva Ring for about three years, followed by approximately 5.5 year hiatus. The medical history and gynecological clinical examination were not unusual, with the exception of elevated liver enzymes having been discovered about two years prior to visit. […] The initial treatment thus comprised short-term moderate amounts of Prednisone, with the regiment starting about the time of re-start of the Nuva Ring use. Approximately two months after the start of Prednisone regimen the patient was diagnosed with an overlap syndrome of Primary Biliary Cholangitis/Cirrhosis (PBC) and Autoimmune Hepatitis (AIH). […] New treatment regimen was implemented. Nuva Ring was replaced with a non-hormonal intrauterine device (copper) to enable treatment with immunosuppressive drugs. Additionally steroid drugs, Ursodiol (300 mg three times a day) and mycophenolate mofetil (Cellcept, 500 mg, four times a day), regimen was started in order to reduce AST levels, and continued for 1 year. Finally dietary changes eliminating foods that are rich in zinc and vitamin B12 were effected.

SMILES | itching symptoms at the time of menstruation
COc1c(C)c2c(c(O)c1C/C=C(\C)CCC(=O)OCCN1CCOCC1)C(=O)OC2 [mycophenolate mofetil] | significant reduction of the itching symptoms
C[C@H](CCC(=O)O)[C@H]1CC[C@H]2[C@@H]3[C@@H](O)C[C@@H]4C[C@H](O)CC[C@]4(C)[C@H]3CC[C@]12C [Ursodiol] | significant reduction of the itching symptoms
